This is an account of results in patent US12668600B2 (Kumquat Biosciences Inc., priority 2023, dated 2026).

Type in all cases: biochemical
The target in assay [1] is T1, KRAS WT (Homo sapiens, UniProt P01116).
T1 construct: made in house; host or cells: E. coli, e.g. BL21 (DE3)
Kind of assay: HTRF KRAS-SOS1 interaction assay, wildtype KRAS. To be noted: binned ≤2 μM / >2 μM, read-out: Inhibition of KRAS WT (IC50). The method, boiled down: (§1)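 Inhibition of the KRAS–SOS1 interaction was measured by HTRF (ex 337, em 620/665 nm) after ≥~10 min incubation. Donor: anti-GST-Eu on GST-KRAS; acceptor: anti-6His-XL665 on His-hSOS1, in HEPES pH 7.4 buffer with DTT, BSA and Igepal. Compounds in duplicate at 0.01–10 μM; IC50 from emission ratio.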

Assay [2] addresses T2, KRAS G12D (Homo sapiens, UniProt P01116, G12D).
T2 construct: made in house; host or cells: E. coli, e.g. BL21 (DE3)
The experiment in a line: HTRF KRAS-SOS1 interaction assay, KRAS G12D. To be noted: binned ≤2 μM / >2 μM, read-out: Inhibition of KRAS G12D (IC50). The method, boiled down: as §1
(In general: TR-FRET usually uses a lanthanide donor and a delayed reading to cut background.)

The target of assay [3] is T3, KRAS G12S (Homo sapiens, UniProt P01116, G12S).
T3 construct: made in house; host or cells: E. coli, e.g. BL21 (DE3)
T3 sequence (P01116 1-188 isoform P01116-2 G12S): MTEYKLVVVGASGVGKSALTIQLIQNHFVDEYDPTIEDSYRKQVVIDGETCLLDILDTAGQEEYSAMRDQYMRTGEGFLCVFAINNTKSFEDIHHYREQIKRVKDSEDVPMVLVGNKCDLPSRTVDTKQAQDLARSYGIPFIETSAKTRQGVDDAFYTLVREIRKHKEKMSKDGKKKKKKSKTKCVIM
The experiment in a line: HTRF KRAS-SOS1 interaction assay, KRAS G12S. The following applies: binned ≤2 μM / >2 μM, read-out: Inhibition of KRAS G12S (IC50). In a few lines: as §1

Assay [4] has as its target T4, KRAS G12V (Homo sapiens, UniProt P01116, G12V).
T4 construct: made in house; host or cells: E. coli, e.g. BL21 (DE3)
The experiment in a line: HTRF KRAS-SOS1 interaction assay, KRAS G12V. The following applies: binned ≤2 μM / >2 μM, read-out: Inhibition of KRAS G12V (IC50). The method, boiled down:
as §1

Molecules are shown by their SMILES. pIC50: −log10 of the molar value.

T4 sequence (P01116 1-188 isoform P01116-2 G12V): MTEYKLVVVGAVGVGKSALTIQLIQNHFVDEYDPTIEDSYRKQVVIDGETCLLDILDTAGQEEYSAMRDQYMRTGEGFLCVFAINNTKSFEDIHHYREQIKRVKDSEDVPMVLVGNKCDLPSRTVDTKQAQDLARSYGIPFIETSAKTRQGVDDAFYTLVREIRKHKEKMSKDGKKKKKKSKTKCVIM
T1 sequence (P01116 1-188 isoform P01116-2): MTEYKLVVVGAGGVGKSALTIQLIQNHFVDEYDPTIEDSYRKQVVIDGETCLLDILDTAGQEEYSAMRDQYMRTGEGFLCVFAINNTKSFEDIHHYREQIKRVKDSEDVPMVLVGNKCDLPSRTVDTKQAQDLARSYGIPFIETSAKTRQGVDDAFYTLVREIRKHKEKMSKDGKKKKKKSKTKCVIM
T2 sequence (P01116 1-188 isoform P01116-2 G12D): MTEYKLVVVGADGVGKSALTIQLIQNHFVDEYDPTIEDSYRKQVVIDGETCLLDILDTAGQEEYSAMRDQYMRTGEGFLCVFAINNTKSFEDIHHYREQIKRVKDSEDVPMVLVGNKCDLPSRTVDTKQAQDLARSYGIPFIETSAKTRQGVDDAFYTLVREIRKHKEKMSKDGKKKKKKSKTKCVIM

For the molecule `C[C@H](c1cc(C2CC2)cnc1N)N1CCOc2c(C(F)(F)F)c(-c3ccc(F)c4sc(N)c(C#N)c34)c(F)c3nc(OC[C@@]45CCCN4C[C@H](F)C5)nc1c23` [Compound 654, 2-amino-4-(4-((R)-1-(2-amino-5-cyclopropylpyridin-3-yl)ethyl)-10-fluoro-2-(((2R,7aS)-2-fluorotetrahydro-1H-pyrrolizin-7a(5H)-yl)methoxy)-8-(trifluoromethyl)-5,6-dihydro-4H-[1,4]oxazepino[5,6,7-de]quinazolin-9-yl)-7-fluorobenzo[b]thiophene-3-carbonitrile], the negative logarithm of the IC50 (pIC50) in assay [1], in assay [2], in assay [3] and in assay [4] was no less than 5.70 each time.
For `C[C@H](Oc1nc2c3c(c(Cl)c(-c4ccc(F)c5sc(N)c(C#N)c45)c(F)c3n1)OCCN2[C@H](C)c1cccnc1N)[C@@H]1CCCN1C` (single isomer, unassigned) [Compound 633], the pIC50 in assay [1], in assay [2], in assay [3] and in assay [4] was no less than 5.70 in each case.
For the molecule `C[C@H](c1cccnc1N)N1CCOc2c(C(F)(F)F)c(-c3ccc(F)c4sc(N)c(C#N)c34)c(F)c3nc(OCC4(CN5CCC(=CF)CC5)CC4)nc1c23` [Compound 814, 2-amino-4-(4-((R)-1-(2-aminopyridin-3-yl)ethyl)-10-fluoro-2-((1-((4-(fluoromethylene)piperidin-1-yl)methyl)cyclopropyl)methoxy)-8-(trifluoromethyl)-5,6-dihydro-4H-[1,4]oxazepino[5,6,7-de]quinazolin-9-yl)-7-fluorobenzo[b]thiophene-3-carbonitrile], the negative-log IC50 (pIC50) in assay [1], in assay [2], in assay [3] and in assay [4] was no less than 5.70 each time.
Take `N#Cc1c(N)sc2c(F)ccc(-c3c(C(F)(F)F)c4c5c(nc(OC[C@@]67CCCN6C[C@@]6(CC6(F)F)C7)nc5c3F)N([C@H](CC3CCOCC3)c3cccnc3N)CCO4)c12` [Compound 855, 2-amino-4-(4-((R)-1-(2-aminopyridin-3-yl)-2-(tetrahydro-2H-pyran-4-yl)ethyl)-2-(((1S,7a′S)-2,2-difluorodihydro-1′H,3′H-spiro[cyclopropane-1,2′-pyrrolizin]-7a′(5′H)-yl)methoxy)-10-fluoro-8-(trifluoromethyl)-5,6-dihydro-4H-[1,4]oxazepino[5,6,7-de]quinazolin-9-yl)-7-fluorobenzo[b]thiophene-3-carbonitrile]: the pIC50 in assay [1], in assay [2], in assay [3] and in assay [4] was no less than 5.70 each time.
As to `C#Cc1c(F)ccc2cc(O)cc(-c3nc4c5c(nc(OC[C@@H]6CCCN6C)nc5c3F)N(C(C)c3cccnc3N)CCO4)c12` (mixture of isomers) [Compound 722, 4-(10-(1-(2-aminopyridin-3-yl)ethyl)-4-fluoro-2-(((S)-1-methylpyrrolidin-2-yl)methoxy)-9,10-dihydro-8H-7-oxa-1,3,6,10-tetraazacyclohepta[de]naphthalen-5-yl)-5-ethynyl-6-fluoronaphthalen-2-ol], the pIC50 in assay [1], in assay [2], in assay [3] and in assay [4] was no less than 5.70 in each case.
For the molecule `C[C@H](c1ccc(F)nc1N)N1CCOc2c(C(F)(F)F)c(-c3ccc(F)c4sc(N)c(C#N)c34)c(F)c3nc(OCC4(CN5CCC(F)CC5)CC4)nc1c23` [Compound 604, 2-amino-4-(4-((R)-1-(2-amino-6-fluoropyridin-3-yl)ethyl)-10-fluoro-2-((1-((4-fluoropiperidin-1-yl)methyl)cyclopropyl)methoxy)-8-(trifluoromethyl)-5,6-dihydro-4H-[1,4]oxazepino[5,6,7-de]quinazolin-9-yl)-7-fluorobenzo[b]thiophene-3-carbonitrile], the pIC50 in assay [1], in assay [2], in assay [3] and in assay [4] was no less than 5.70 in each case.
Regarding `N#Cc1c(N)sc2c(F)ccc(-c3c(C(F)(F)F)c4c5c(nc(OC[C@@]67CCCN6C[C@H](F)C7)nc5c3F)N([C@H](CCC3CC3)c3cccnc3N)CCO4)c12` (single isomer, unassigned) [Compound 877], the pIC50 in assay [1], in assay [2], in assay [3] and in assay [4] was no less than 5.70 in each case.
Consider `C=C[C@H]1COc2c(Cl)c(-c3ccc(F)c4sc(N)c(C#N)c34)c(F)c3nc(OC[C@@]45CCCN4C[C@H](F)C5)nc(c23)N1C(C)c1cccnc1N` (single isomer, unassigned) [Compound 732], for which the pIC50 in assay [1], in assay [2], in assay [3] and in assay [4] was no less than 5.70 each time.
As for `N#Cc1c(N)sc2c(F)ccc(-c3c(C(F)(F)F)c4c5c(nc(OC[C@@]67CCCN6C[C@@]6(CC6(F)F)C7)nc5c3F)N([C@@H](c3cccnc3N)C(F)F)CCO4)c12` (single isomer, unassigned) [Compound 843], the pIC50 in assay [1], in assay [2], in assay [3] and in assay [4] was no less than 5.70 in each case.
With `C[C@H](c1cccnc1N)N1CCOc2nc(-c3ccc(F)c4sc(N)c(C#N)c34)c(F)c3nc(OC[C@@H]4CCCN4C)nc1c23` (single isomer, unassigned) [Compound 651], the pIC50 in assay [1], in assay [2], in assay [3] and in assay [4] was no less than 5.70 each time.
With `C/C=C/[C@H](c1cccnc1N)N1CCOc2c(Cl)c(-c3ccc(F)c4sc(N)c(C#N)c34)c(F)c3nc(OC[C@@]45CCCN4C[C@H](F)C5)nc1c23` (mixture of isomers) [Compound 756, 2-amino-4-(4-((R,E)-1-(2-aminopyridin-3-yl)but-2-en-1-yl)-8-chloro-10-fluoro-2-(((2R,7aS)-2-fluorotetrahydro-1H-pyrrolizin-7a(5H)-yl)methoxy)-5,6-dihydro-4H-[1,4]oxazepino[5,6,7-de]quinazolin-9-yl)-7-fluorobenzo[b]thiophene-3-carbonitrile], the pIC50 in assay [1], in assay [2], in assay [3] and in assay [4] was no less than 5.70 in each case.
Consider `C[C@@H]1COCCN1CC1(COc2nc3c4c(c(C(F)(F)F)c(-c5ccc(F)c6sc(N)c(C#N)c56)c(F)c4n2)OCCN3[C@H](C)c2cccnc2N)CC1` (single isomer, unassigned) [Compound 608], for which the pIC50 in assay [1], in assay [2], in assay [3] and in assay [4] was no less than 5.70 throughout.
Turning to `CC[S+]([O-])[C@@H]1CN2CCC[C@@]2(COc2nc3c4c(c(Cl)c(-c5ccc(F)c6sc(N)c(C#N)c56)c(F)c4n2)OCCN3[C@H](C)c2cccnc2N)C1` (mixture of isomers) [Compound 780, 2-amino-4-(4-((R)-1-(2-aminopyridin-3-yl)ethyl)-8-chloro-2-(((2S,7aS)-2-(ethylsulfinyl)tetrahydro-1H-pyrrolizin-7a(5H)-yl)methoxy)-10-fluoro-5,6-dihydro-4H-[1,4]oxazepino[5,6,7-de]quinazolin-9-yl)-7-fluorobenzo[b]thiophene-3-carbonitrile], the pIC50 in assay [1], in assay [2], in assay [3] and in assay [4] was no less than 5.70 in each case.
With `N#Cc1c(N)sc2c(F)ccc(-c3c(Cl)c4c5c(nc(OC[C@@]67CCCN6C[C@H](F)C7)nc5c3F)N(C(CCCO)c3cccnc3N)CCO4)c12` (mixture of isomers) [Compound 822, 2-amino-4-(4-(1-(2-aminopyridin-3-yl)-4-hydroxybutyl)-8-chloro-10-fluoro-2-(((2R,7aS)-2-fluorotetrahydro-1H-pyrrolizin-7a(5H)-yl)methoxy)-5,6-dihydro-4H-[1,4]oxazepino[5,6,7-de]quinazolin-9-yl)-7-fluorobenzo[b]thiophene-3-carbonitrile], the negative logarithm of the IC50 (pIC50) in assay [1], in assay [2], in assay [3] and in assay [4] was no less than 5.70 each time.
Turning to `CON=C1CN2CCC[C@@]2(COc2nc3c4c(c(Cl)c(-c5ccc(F)c6sc(N)c(C#N)c56)c(F)c4n2)OCCN3[C@H](C)c2cccnc2N)C1` (mixture of isomers) [Compound 653, 2-amino-4-(4-((R)-1-(2-aminopyridin-3-yl)ethyl)-8-chloro-10-fluoro-2-(((S)-2-(methoxyimino)tetrahydro-1H-pyrrolizin-7a(5H)-yl)methoxy)-5,6-dihydro-4H-[1,4]oxazepino[5,6,7-de]quinazolin-9-yl)-7-fluorobenzo[b]thiophene-3-carbonitrile], the pIC50 in assay [1], in assay [2], in assay [3] and in assay [4] was no less than 5.70 throughout.
For `N#Cc1c(N)sc2c(F)ccc(-c3c(C(F)(F)F)c4c5c(nc(OC[C@@]67CCCN6C[C@H](F)C7)nc5c3F)N([C@H](CC3CCC3)c3cccnc3N)CCO4)c12` (single isomer, unassigned) [Compound 893], the negative-log IC50 (pIC50) in assay [1], in assay [2], in assay [3] and in assay [4] was no less than 5.70 throughout.
On to `N#Cc1c(N)sc2cccc(-c3c(Cl)c4c5c(nc(OC[C@@]67CCCN6C[C@H](F)C7)nc5c3F)N([C@@H](c3cccnc3N)C(F)F)CCO4)c12` (single isomer, unassigned) [Compound 802], for which the pIC50 in assay [1], in assay [2], in assay [3] and in assay [4] was less than 5.70 each time.
